Results published in patent US7579439B2, “Modulation of IL-2- and IL-15-mediated T cell responses” (Beth Israel Deaconess Medical Center, Inc., priority 2000, dated 2009).

Key:
[1] = system: IL-2Rγ+ BAF-BO3 cell transfectants that express the IL-2Rβ subunit; experiment: BAF-BO3 cell proliferation assay (IL-2Rβ transfectants); format: cell-based
Method: (§1) In the next series of experiments, the FLAG-HMK-IL-15 fusion protein was tested to determine whether it could function as a biologically active growth factor.

[2] = system: IL-15 binding sites on PHA-activated human PBMCs; experiment: Cytofluorometric analysis of binding to PBMCs (anti-FLAG biotinylated Ab, streptavidin-RED670); details: flow cytometry
Method: The FLAG-HMK-IL-15 fusion protein, biotinylated anti-FLAG antibody, and streptavidin-RED670 were employed to detect expression of IL-15 binding sites on human PBMCs by cytofluorometric analysis. The PBMCs tested were either freshly isolated or PHA-activated. These cells were washed and incubated with either medium alone or FLAG-HMK-IL-15 followed by anti-FLAG biotinylated Ab and streptavidin-RED670. The stained cells were analyzed by flow cytometry. […] Both activated CD4^+ and CD8^+ cells express IL-15α chains. Activation induced IL-15Rα chains were also detected on CD14^+ (monocyte/macrophage) cells and CD16^+ (natural killer) cells.
PHA-activated PBMCs were washed and incubated with medium alone, or with the FLAG-HMK-IL-15 double mutant. The cells were then incubated with an anti-FLAG biotinylated antibody and stained with streptavidin conjugated to RED670. The stained cells were analyzed by flow cytometry.

[3] = system: PHA-activated human PBMCs; experiment: [3H]-TdR incorporation assay, PHA-activated PBMCs; format: cell-based
Method: as §1

[4] = system: parental BAF-BO3 cells transfected with a vector lacking IL-2Rβ chain sequences; experiment: BAF-BO3 cell proliferation assay (parental cells, vector lacking IL-2Rβ); format: cell-based; details: parental BAF-BO3 cells lacking IL-2Rβ
Method: In the next series of experiments, the FLAG-HMK-IL-15 fusion protein was tested to determine whether it could function as a biologically active growth factor. […] Thus, FLAG-HMK-IL-15 is a biologically active growth factor that requires expression of IL-2Rβ chains upon target cells in order to stimulate cellular proliferation.

[5] = system: leukemic cell lines MOLT-14, YT, HuT-102, 2A and 2B; experiment: FACS analysis of leukemic cell lines stained with FLAG-HMK-IL-15; format: binding; details: flow cytometry
Method: The cells treated were obtained from the leukemic cell lines MOLT-14, YT, HuT-102, and from cell lines currently being established at Beth Israel Hospital (Boston, Mass.), and named 2A and 2B. The cultured cells were washed and incubated with either medium alone or with medium containing the FLAG-HMK-IL-15 wild-type polypeptide. The cells were then incubated with the biotinylated anti-FLAG antibody and stained with RED670-conjugated streptavidin. The stained cells were analyzed by flow cytometry.

human IL-15Rα subunit = target: T1, human IL-15Rα subunit (Homo sapiens, UniProt Q13261); experiment: Cross-linking of [32P]-FLAG-HMK-IL-15 to PHA-activated PBMCs (DSS, SDS-PAGE autoradiography); format: binding; details: cross-linked with DSS; band lost with molar excess of hIL-15
T1 construct: endogenous in cells
Method: The purified FLAG-HMK-IL-15 fusion protein was tested to determine whether it interacts with cell surface IL-15 receptors. As described above, [^32P]-FLAG-HMK-IL-15 was added to cultures of PBMCs that were activated by a mitogen, PHA. In order to permanently bind interactive proteins to one another, the chemical cross-linker disuccinimidyl suberate (DSS) was added. The cells were washed, lysed, centrifuged, and detergent-soluble proteins were separated by SDS-PAGE. […] The identity of this band as the IL-15Rα subunit was confirmed by cross-linking experiments conducted in the presence of a molar excess of hIL-15.

[6] = system: T cells at the second cell division in vivo; experiment: In vitro proliferation of sorted in vivo dividing T cells (3H-TdR uptake); format: cell-based, mice; details: IL-2 in doses as high as; IL-15 5 ng/ml; 48 hours
Method: CFSE-labeled lymphocytes were stimulated in vivo for three days and cell division was analyzed by examining the CFSE profile. T cells in the second cell division were sorted and cells (1×10^4) were cultured in vitro with IL-2 or IL-15 for two days. Cellular proliferation was determined by ^3H-TdR uptake. The results are presented as the mean CPM±SD of triplicate assays.
Cell sorting and in vitro proliferation assays were carried out as follows. CFSE-labeled cells were prepared from irradiated allogeneic hosts three days after intravenous injection of labeled cells, and cell proliferation in vivo was identified by analysis of the cells' CFSE profile. The second cell division was selected, gated, and sorted with FACS Vantage™. Cells (1×10^4/ml) were resuspended in RPMI 1640 medium with 10% FCS and 1% penicillin and streptomycin, and stimulated with IL-2 (40 μ/ml to 500 μ/ml) or IL-15 (5 ng/ml) for 48 hours. Cells were pulsed with 1 mCi 3H-TdR (Amersham, Boston, Mass.) for 16 hours and ^3H-TdR uptake was determined by scintillation counting (Beckman Instrument, Columbia, Md.).

T1 sequence (Q13261 31-267): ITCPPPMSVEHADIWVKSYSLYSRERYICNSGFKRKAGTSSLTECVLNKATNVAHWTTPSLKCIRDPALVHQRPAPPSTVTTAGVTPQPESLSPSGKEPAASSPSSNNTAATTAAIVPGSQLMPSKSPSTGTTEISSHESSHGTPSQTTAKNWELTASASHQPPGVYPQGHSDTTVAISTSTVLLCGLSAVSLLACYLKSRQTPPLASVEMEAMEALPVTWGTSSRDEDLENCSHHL

Substance	inhibition of BAF-BO3 proliferation ([1]; 30 μl versus 20 μL of approximately 50 μg/ml)	binding to PHA activated PBMCs [2]	stimulation of proliferation ([1]; BAF-BO3 transfectants expressing IL-2Rβ)	stimulation of cell proliferation [3]	stimulation of proliferation [4]	binding to leukemia cells [5]	binding to the IL-15Rα subunit on the surface of mitogen-activated PBMCs (human IL-15Rα subunit)	T cell proliferation by 3H-TdR uptake [6]
FLAG-HMK-IL-15 double mutant: human IL-15 protein bearing a double mutation (Q149D; Q156D), FLAG-HMK tagged	inhibit BAF-BO3 proliferation in a dose-dependent manner	bind PHA activated human PBMCs was demonstrated	–	–	–	–	–	–
FLAG-HMK-IL-15: IL-15 polypeptide having an N-terminus covalently bound to the 18 amino acid FLAG-HMK-sequence	–	blocked by a molar excess of rIL-15	stimulates proliferation	proliferate in response to	does not, however, stimulate the proliferation	bind leukemia cells was shown	site specific binding	–
IL-15: recombinant human IL-15	–	–	–	–	–	–	–	stimulated vigorous cell proliferation
